From patent US8629173B2, “Solid forms comprising (+)-2-[1-(3-ethoxy-4-methoxyphenyl)-2-methylsulfonylethyl]-4-acetylaminoisoindoline-1,3-dione, compositions thereof, and uses thereof” (Celgene Corporation, priority 2002, dated 2014)

Columns and labels:
PDE4 (from U937 cells) = assay: PDE4 (U937 cell-derived) enzyme assay; type: biochemical, human; conditions: 1 μM cAMP
bovine PDE1 = assay: PDE1 enzyme assay; type: biochemical
human PDE2 = human PDE2 (Homo sapiens, UniProt O00408); assay: PDE2 enzyme assay; type: biochemical
[1] = biological target: PDE3 from human platelets (Homo sapiens, UniProt Q14432); assay: PDE3 enzyme assay; type: biochemical
[2] = biological target: PDE5 from human platelets (Homo sapiens, UniProt O76074); assay: PDE5 enzyme assay; type: biochemical
[3] = biological target: T1, PDE6 from bovine retinal rod outer segments (Bos taurus, UniProt P11541+P23439); assay: PDE6 enzyme assay; type: biochemical
T1 construct: PDE6 from bovine retinal rod outer segments; from tissue; host or cells: bovine retinal rod outer segments
T1 sequence (P11541 2-856 limits assumed): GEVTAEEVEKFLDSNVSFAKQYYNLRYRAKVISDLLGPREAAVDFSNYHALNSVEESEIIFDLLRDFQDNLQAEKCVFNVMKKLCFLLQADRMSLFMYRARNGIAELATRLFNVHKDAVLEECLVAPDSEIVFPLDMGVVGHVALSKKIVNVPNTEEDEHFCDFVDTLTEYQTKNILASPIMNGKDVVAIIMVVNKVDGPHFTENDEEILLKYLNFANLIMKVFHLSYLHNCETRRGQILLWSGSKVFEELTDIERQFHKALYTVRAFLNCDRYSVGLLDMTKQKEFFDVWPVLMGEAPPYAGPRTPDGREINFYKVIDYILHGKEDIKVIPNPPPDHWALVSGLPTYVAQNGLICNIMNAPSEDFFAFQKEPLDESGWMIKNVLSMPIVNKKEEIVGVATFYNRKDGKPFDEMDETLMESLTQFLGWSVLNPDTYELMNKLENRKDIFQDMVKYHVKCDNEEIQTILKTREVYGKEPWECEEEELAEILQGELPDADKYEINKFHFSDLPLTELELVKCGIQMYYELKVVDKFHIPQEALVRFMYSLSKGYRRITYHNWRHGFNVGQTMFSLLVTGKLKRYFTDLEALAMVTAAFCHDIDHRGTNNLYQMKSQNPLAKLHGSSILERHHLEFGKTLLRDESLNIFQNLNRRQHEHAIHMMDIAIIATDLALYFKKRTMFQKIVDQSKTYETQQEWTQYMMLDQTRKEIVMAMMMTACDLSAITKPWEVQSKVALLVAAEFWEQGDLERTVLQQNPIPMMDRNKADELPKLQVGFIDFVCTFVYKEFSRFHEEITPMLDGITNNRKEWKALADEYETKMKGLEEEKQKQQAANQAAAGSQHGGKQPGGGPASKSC
T1 sequence (P23439 2-850 limits assumed): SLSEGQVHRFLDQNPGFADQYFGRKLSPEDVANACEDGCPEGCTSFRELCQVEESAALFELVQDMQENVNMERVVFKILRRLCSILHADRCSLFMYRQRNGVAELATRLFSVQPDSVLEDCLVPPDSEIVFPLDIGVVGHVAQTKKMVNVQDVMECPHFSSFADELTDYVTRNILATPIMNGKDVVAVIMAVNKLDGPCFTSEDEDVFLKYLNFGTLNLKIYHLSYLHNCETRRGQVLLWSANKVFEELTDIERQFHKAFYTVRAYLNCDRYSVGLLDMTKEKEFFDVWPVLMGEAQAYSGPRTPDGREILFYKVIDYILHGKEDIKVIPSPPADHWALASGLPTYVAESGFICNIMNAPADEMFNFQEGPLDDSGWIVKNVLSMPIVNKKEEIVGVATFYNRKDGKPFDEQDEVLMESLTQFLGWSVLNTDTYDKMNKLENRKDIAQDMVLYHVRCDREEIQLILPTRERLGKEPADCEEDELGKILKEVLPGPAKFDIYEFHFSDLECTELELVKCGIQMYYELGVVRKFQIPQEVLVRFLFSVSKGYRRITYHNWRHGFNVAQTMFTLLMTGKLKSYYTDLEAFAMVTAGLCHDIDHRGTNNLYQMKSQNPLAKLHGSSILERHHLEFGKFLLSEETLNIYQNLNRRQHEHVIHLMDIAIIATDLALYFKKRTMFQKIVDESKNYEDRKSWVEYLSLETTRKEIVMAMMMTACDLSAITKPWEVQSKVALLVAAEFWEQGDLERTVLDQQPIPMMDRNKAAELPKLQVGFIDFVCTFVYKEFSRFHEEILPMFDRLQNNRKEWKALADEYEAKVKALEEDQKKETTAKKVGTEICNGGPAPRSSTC

PDE3 from human platelets, sequence (Q14432 whole entry): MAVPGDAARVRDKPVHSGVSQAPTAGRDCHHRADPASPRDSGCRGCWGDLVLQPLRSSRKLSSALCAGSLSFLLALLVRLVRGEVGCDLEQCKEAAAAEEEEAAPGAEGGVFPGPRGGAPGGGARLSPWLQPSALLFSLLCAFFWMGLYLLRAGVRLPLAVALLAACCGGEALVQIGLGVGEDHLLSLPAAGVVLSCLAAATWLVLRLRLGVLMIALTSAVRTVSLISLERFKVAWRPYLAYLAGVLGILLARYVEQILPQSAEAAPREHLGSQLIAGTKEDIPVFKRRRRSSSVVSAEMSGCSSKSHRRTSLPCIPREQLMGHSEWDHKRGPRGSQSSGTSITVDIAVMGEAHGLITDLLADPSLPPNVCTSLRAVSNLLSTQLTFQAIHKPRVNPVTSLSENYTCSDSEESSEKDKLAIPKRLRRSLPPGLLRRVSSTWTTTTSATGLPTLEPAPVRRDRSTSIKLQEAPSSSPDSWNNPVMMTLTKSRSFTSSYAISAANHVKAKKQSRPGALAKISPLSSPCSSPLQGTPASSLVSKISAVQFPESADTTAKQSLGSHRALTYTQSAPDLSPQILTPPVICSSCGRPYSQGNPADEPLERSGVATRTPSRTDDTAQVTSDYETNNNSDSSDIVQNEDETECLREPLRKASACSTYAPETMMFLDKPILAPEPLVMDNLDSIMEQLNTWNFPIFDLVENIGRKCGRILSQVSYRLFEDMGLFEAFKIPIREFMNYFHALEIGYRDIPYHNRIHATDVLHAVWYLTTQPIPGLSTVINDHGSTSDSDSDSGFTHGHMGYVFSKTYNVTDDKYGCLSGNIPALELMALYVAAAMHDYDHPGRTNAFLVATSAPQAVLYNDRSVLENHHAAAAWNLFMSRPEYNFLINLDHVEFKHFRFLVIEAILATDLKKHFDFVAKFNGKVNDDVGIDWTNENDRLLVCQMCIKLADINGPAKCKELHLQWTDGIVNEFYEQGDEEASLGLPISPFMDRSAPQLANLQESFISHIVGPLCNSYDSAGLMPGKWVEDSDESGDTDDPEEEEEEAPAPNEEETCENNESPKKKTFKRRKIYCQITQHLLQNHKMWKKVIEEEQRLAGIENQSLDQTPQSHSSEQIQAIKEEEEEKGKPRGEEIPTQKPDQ
human PDE2, sequence (O00408 whole entry): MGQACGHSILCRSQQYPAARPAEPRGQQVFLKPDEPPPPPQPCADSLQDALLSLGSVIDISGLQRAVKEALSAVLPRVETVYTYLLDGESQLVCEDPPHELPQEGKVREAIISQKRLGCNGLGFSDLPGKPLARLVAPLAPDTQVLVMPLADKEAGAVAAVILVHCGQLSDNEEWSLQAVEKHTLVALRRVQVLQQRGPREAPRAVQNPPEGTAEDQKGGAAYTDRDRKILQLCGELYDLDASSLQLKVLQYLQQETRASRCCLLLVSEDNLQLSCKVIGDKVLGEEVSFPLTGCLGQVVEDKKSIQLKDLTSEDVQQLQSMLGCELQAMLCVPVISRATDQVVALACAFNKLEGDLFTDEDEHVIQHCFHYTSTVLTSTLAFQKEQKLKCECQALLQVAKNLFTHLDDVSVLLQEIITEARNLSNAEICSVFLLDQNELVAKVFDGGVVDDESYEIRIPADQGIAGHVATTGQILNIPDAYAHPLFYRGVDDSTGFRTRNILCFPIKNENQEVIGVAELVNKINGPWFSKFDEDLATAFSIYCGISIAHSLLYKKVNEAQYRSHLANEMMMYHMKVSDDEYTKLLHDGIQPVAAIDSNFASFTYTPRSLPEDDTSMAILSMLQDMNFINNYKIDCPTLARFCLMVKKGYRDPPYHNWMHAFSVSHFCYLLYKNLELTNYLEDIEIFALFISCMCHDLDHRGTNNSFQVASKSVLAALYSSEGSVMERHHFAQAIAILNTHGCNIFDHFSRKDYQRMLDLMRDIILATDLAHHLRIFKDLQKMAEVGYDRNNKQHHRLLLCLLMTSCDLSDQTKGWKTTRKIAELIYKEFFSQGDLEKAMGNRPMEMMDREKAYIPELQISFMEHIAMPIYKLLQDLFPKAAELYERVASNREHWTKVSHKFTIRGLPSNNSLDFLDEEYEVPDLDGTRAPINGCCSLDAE

Compound: CCOc1cc([C@H](CS(C)(=O)=O)N2C(=O)c3cccc(NC(C)=O)c3C2=O)ccc1OC [Compound B]
- IC50 (PDE4 (from U937 cells)): 611 nM
- PDE1 (% inhib at 10 μM) (bovine PDE1; 10 μM): 27%
- PDE Specificity Ratio PDE4/PDE1 (bovine PDE1; from Table 1 data): >50 fold
- PDE2 (% inhib at 10 μM) (human PDE2; 10 μM): 10%
- PDE Specificity Ratio PDE4/PDE2 (human PDE2; from Table 1 data): >260 fold
- PDE3 (% inhib at 10 μM) ([1]; 10 μM): 31%
- PDE Specificity Ratio PDE4/PDE3 ([1]; from Table 1 data): >45 fold
- PDE5 (% inhib at 10 μM) ([2]; 10 μM): −9%
- PDE Specificity Ratio PDE4/PDE5 ([2]; from Table 1 data): >39000 fold
- PDE6 (% inhib at 10 μM) ([3]; 10 μM): 10%
- PDE Specificity Ratio PDE4/PDE6 ([3]; from Table 1 data): >250 fold
